The source of these data is patent US20250205344A1, “2,4-DIOXOTETRAHYDROPYRIMIDINYL DERATIVES AS DEGRONS IN PROTACS” (GLAXOSMITHKLINE INTELLECTUAL PROPERTY DEVELOPMENT LIMITED, priority 2022, published 2025).

In this experiment the target is T1, Androgen Receptor (Homo sapiens, UniProt P10275, T878A).
T1 construct: the AR gene was modified, using CRISPR/Cas9 editing, so the expressed AR protein included an 11 amino acid HiBiT tag; endogenous in cells; host or cells: clonal LnCaP-derived line, AR gene edited by CRISPR/Cas9
The experiment can be described thus: Androgen Receptor Degradation Assay (Nano-Glo HiBiT). Conditions: 18 h, HiBiT-tagged AR in human LnCaP cells; for Dmax: LNCaP, read-out: mean asymptote max. The experiment is classed as cell-based. Put shortly: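 LnCaP cells with CRISPR-knocked-in N-terminal HiBiT-tagged AR (10,000/well) treated 18 h at 37 °C with PROTACs over 11 threefold concentrations; lytic HiBiT luminescence normalised to DMSO (0%) and cell-free (100%) controls. Relative DC50 = 4-parameter fit inflection; absolute DC50 = 50% degradation interpolation; Dmax = maximum observed degradation.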

Structures can show the parent of a compound that is named as a salt.

T1 sequence (P10275 whole entry T878A): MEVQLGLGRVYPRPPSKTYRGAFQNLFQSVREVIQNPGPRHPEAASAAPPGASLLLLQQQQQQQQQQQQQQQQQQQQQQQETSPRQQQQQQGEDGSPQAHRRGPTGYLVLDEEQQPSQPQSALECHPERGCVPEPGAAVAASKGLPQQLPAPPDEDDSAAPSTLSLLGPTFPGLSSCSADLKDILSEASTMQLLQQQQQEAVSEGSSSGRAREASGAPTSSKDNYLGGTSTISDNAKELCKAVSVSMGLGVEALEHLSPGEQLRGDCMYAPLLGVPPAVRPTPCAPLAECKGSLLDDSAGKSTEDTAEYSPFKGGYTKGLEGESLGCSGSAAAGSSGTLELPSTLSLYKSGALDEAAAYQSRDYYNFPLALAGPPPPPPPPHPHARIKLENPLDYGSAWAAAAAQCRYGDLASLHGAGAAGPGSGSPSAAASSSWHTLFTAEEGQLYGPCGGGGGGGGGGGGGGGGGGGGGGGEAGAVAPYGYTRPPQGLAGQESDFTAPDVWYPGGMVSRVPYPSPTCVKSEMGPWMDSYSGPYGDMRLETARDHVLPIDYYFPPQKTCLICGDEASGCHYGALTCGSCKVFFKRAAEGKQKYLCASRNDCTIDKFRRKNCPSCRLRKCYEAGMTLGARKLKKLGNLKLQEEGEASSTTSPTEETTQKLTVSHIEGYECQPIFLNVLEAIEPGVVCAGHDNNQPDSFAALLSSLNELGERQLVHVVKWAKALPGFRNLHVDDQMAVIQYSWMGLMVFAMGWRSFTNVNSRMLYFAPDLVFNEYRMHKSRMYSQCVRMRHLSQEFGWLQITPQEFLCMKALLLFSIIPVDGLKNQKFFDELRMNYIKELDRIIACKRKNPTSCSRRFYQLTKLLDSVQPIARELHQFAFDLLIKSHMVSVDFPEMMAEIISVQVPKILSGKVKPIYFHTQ
T1 sequence (Q96SW2 whole entry partner): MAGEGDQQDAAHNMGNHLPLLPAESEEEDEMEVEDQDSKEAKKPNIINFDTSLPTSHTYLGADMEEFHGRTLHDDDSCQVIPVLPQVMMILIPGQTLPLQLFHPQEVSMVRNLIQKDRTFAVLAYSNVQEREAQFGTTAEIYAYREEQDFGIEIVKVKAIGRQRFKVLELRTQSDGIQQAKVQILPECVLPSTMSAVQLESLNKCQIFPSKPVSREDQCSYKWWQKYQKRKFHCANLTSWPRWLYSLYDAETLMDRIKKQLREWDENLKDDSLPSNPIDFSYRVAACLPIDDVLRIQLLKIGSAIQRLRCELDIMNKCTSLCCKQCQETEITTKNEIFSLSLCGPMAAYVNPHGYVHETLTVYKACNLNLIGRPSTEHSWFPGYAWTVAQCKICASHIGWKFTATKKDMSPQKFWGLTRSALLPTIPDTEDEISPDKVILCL
T1 sequence (Q16531 whole entry partner): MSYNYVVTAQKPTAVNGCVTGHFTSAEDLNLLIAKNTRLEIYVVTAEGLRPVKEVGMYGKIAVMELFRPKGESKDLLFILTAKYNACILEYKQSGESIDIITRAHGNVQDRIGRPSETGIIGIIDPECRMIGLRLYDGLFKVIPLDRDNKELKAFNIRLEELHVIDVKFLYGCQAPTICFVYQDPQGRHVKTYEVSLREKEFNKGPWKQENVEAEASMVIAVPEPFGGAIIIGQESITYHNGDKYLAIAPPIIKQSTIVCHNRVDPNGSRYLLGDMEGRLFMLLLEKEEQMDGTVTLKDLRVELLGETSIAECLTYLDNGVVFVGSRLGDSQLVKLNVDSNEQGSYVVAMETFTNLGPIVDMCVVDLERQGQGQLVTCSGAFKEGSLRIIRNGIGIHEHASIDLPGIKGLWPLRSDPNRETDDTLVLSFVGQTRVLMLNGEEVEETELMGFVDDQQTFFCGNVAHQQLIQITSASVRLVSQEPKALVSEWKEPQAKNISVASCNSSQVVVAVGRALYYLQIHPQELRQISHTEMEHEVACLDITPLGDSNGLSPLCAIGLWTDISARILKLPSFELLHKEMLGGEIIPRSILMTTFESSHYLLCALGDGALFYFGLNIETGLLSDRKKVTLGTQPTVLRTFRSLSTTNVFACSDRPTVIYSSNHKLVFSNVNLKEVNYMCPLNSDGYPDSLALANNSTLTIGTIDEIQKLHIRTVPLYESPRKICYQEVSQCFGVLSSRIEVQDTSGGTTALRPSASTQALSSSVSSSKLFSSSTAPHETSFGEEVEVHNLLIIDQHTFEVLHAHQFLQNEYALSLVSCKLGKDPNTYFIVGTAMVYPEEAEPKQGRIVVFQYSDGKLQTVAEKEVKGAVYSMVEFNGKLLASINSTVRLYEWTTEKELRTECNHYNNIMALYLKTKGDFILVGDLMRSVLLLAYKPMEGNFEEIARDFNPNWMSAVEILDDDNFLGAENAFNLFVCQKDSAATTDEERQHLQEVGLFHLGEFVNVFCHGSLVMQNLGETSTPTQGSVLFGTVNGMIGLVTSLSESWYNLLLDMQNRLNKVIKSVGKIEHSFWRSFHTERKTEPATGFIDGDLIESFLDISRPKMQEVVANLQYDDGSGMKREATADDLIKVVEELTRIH

For `C[C@@H]1CN(c2ccc(C#N)c(Cl)c2)[C@@H](C)CN1C(=O)Nc1ccc(N2CCC(CCN3CCC(n4ccc5c(N6CCC(=O)NC6=O)cccc54)CC3)CC2)nc1` (racemic) [EAR115, rac-(trans)-4-(3-Chloro-4-cyanophenyl)-N-(6-(4-(2-(4-(4-(2,4-dioxotetrahydropyrimidin-1(2H)-yl)-1H-indol-1-yl)piperidin-1-yl)ethyl)piperidin-1-yl)pyridin-3-yl)-2,5-dimethylpiperazine-1-carboxamide], the Dmax is at least 50%.

As to `N#Cc1ccc(O[C@H]2CC[C@H](NC(=O)c3ccc(N4CCC5(CC(CN6CCC(n7ncc8c(N9CCC(=O)NC9=O)cccc87)CC6)C5)C4)nn3)CC2)cc1Cl` (some centres unmarked) [EAR233, N-((1r,4r)-4-(3-chloro-4-cyanophenoxy)cyclohexyl)-6-(2-((4-(4-(2,4-dioxotetrahydropyrimidin-1(2H)-yl)-1H-indazol-1-yl)piperidin-1-yl)methyl)-6-azaspiro[3.4]octan-6-yl)pyridazine-3-carboxamide], the Dmax is at least 50%.

Take `CC(C)n1ccc2c(N3CCC(=O)NC3=O)cc(C(=O)N3CCC4(CCN(CCCc5ccc(C(=O)N[C@H]6CC[C@H](Oc7ccc(C#N)c(Cl)c7)CC6)cc5)CC4)CC3)cc21` [EAR85, N-((1r,4r)-4-(3-Chloro-4-cyanophenoxy)cyclohexyl)-4-(3-(9-(4-(2,4-dioxotetrahydropyrimidin-1(2H)-yl)-1-isopropyl-1H-indole-6-carbonyl)-3,9-diazaspiro[5.5]undecan-3-yl)propyl)benzamide]: the Dmax is at least 50%.

On to `CC(C)n1ccc2c(N3CCC(=O)NC3=O)cc(C(=O)N3CCN(CC4CCN(c5ccc(C(=O)N[C@H]6CC[C@H](Oc7ccc(C#N)c(Cl)c7)CC6)cn5)CC4)CC3)cc21` [EAR80, N-((1r,4r)-4-(3-Chloro-4-cyanophenoxy)cyclohexyl)-6-(4-((4-(4-(2,4-dioxotetrahydropyrimidin-1(2H)-yl)-1-isopropyl-1H-indole-6-carbonyl)piperazin-1-yl)methyl)piperidin-1-yl)nicotinamide], for which the Dmax was at least 50%.

For `C[C@@H]1CN(c2ccc(C#N)c(Cl)c2)[C@@H](C)CN1C(=O)Nc1ccc(N2CCC(CCN3CCC(n4ccc5c(N6CCC(=O)NC6=O)cccc54)CC3)CC2)nc1` [EAR117, (2R,5S)-4-(3-Chloro-4-cyanopheny)-N-(6-(4-(2-(4-(4-(2,4-dioxotetrahydropyrimidin-1(2H)-yl)-1H-indol-1-yl)piperidin-1-yl)ethyl)piperidin-1-yl)pyridin-3-yl)-2,5-dimethylpiperazine-1-carboxamide], the Dmax was at least 50%.

In the case of `CC1(C)[C@H](NC(=O)c2ncc(N3CCC(CN4CCC(n5ncc6c(N7CCC(=O)NC7=O)nccc65)CC4)CC3)cn2)C(C)(C)[C@H]1Oc1ccc(C#N)c(Cl)c1` [EAR273, N-((1r,3r)-3-(3-Chloro-4-cyanophenoxy)-2,2,4,4-tetramethylcyclobutyl)-5-(4-((4-(4-(2,4-dioxotetrahydropyrimidin-1(2H)-yl)-1H-pyrazolo[4,3-c]pyridin-1-yl)piperidin-1-yl)methyl)piperidin-1-yl)pyrimidine-2-carboxamide], the “mean relative pDC50” value came to 5.67 and the Dmax is at least 50%.

In the case of `CC(C)n1ccc2c(N3CCC(=O)NC3=O)cc(C(=O)N(C)CC3CCN(CC4CCN(c5ccc(N6C(=S)N(c7ccc(C#N)c(C(F)(F)F)c7)C(=O)C6(C)C)cc5)CC4)CC3)cc21` [EAR89, N-((1-((1-(4-(3-(4-Cyano-3-(trifluoromethyl)phenyl)-5,5-dimethyl-4-oxo-2-thioxoimidazolidin-1-yl)phenyl)piperidin-4-yl)methyl)piperidin-4-yl)methyl)-4-(2,4-dioxotetrahydropyrimidin-1(2H)-yl)-1-isopropyl-N-methyl-1H-indole-6-carboxamide], the Dmax is at least 50%.

As to `N#Cc1ccc(O[C@H]2CC[C@H](NC(=O)c3ccc(OC4CN(C(=O)CN5CCC(n6ccc7c(N8CCC(=O)NC8=O)cccc76)CC5)C4)nn3)CC2)cc1Cl` [EAR178, N-((1r,4r)-4-(3-Chloro-4-cyanophenoxy)cyclohexyl)-6-((1-(2-(4-(4-(2,4-dioxotetrahydropyrimidin-1(2H)-yl)-1H-indol-1-yl)piperidin-1-yl)acetyl)azetidin-3-yl)oxy)pyridazine-3-carboxamide], the Dmax is at least 50%.

For the compound `CC1(C)[C@H](NC(=O)c2cnc(N3CCC(CN4CCC(n5ccc6c(N7CCC(=O)NC7=O)cccc65)CC4)CC3)cn2)C(C)(C)[C@H]1Oc1ccc(C#N)c(Cl)c1` [AR8, N-((1r,3r)-3-(3-Chloro-4-cyanophenoxy)-2,2,4,4-tetramethylcyclobutyl)-5-(4-((4-(4-(2,4-dioxotetrahydropyrimidin-1(2H)-yl)-1H-indol-1-yl)piperidin-1-yl)methyl)piperidin-1-yl)pyrazine-2-carboxamide], the Dmax was at least 50%.

Regarding `C[C@@H]1CN(C(=O)Nc2ccc(N3CCC(CCN4CCC(n5ncc6c(N7CCC(=O)NC7=O)cncc65)CC4)CC3)nc2)[C@@H](C)CN1c1ccc(C#N)c(Cl)c1.O=CO` [EAR133, (2S,5R)-4-(3-Chloro-4-cyanophenyl)-N-(6-(4-(2-(4-(4-(2,4-dioxotetrahydropyrimidin-1(2H)-yl)-1H-pyrazolo[3,4-c]pyridin-1-yl)piperidin-1-yl)ethyl)piperidin-1-yl)pyridin-3-yl)-2,5-dimethylpiperazine-1-carboxamide, formic acid salt], the “mean relative pDC50” value stood at 5.94 and the Dmax is at least 50%.

As for `N#Cc1ccc(O[C@H]2CC[C@H](NC(=O)c3cnc(N4CCC(CN5CCC(n6ncc7c(N8CCC(=O)NC8=O)c(F)ccc76)CC5)CC4)cn3)CC2)cc1C(F)(F)F` [EAR189, N-((1r,4r)-4-(4-Cyano-3-(trifluoromethyl)phenoxy)cyclohexyl)-5-(4-((4-(4-(2,4-dioxotetrahydropyrimidin-1(2H)-yl)-5-fluoro-1H-indazol-1-yl)piperidin-1-yl)methyl)piperidin-1-yl)pyrazine-2-carboxamide hydrochloride], the Dmax was at least 50%.

For `CC(C)n1ccc2c(N3CCC(=O)NC3=O)cc(C(=O)N(C)CC3CCN(CCC4CCN(c5ccc(N6C(=S)N(c7ccc(C#N)c(C(F)(F)F)c7)C(=O)C6(C)C)cc5)CC4)CC3)cc21` [EAR91, N-((1-(2-(1-(4-(3-(4-Cyano-3-(trifluoromethyl)phenyl)-5,5-dimethyl-4-oxo-2-thioxoimidazolidin-1-yl)phenyl)piperidin-4-yl)ethyl)piperidin-4-yl)methyl)-4-(2,4-dioxotetrahydropyrimidin-1(2H)-yl)-1-isopropyl-N-methyl-1H-indole-6-carboxamide], the Dmax was at least 50%.

In the case of `N#Cc1ccc(O[C@H]2CC[C@H](NC(=O)c3ccc(N4CC5(CC(CN6CCC(n7ncc8c(N9CCC(=O)NC9=O)cccc87)CC6)C5)C4)nn3)CC2)cc1Cl` [EAR224, N-((1r,4r)-4-(3-chloro-4-cyanophenoxy)cyclohexyl)-6-(6-((4-(4-(2,4-dioxotetrahydropyrimidin-1(2H)-yl)-1H-indazol-1-yl)piperidin-1-yl)methyl)-2-azaspiro[3.3]heptan-2-yl)pyridazine-3-carboxamide], the Dmax is at least 50%.

`N#Cc1ccc(O[C@H]2CC[C@H](NC(=O)c3ccc(N4CCC(CN5CCC(n6ccc7c(N8CCC(=O)NC8=O)ncnc76)CC5)CC4)nn3)CC2)cc1Cl` [EAR119, N-((1r,4r)-4-(3-Chloro-4-cyanophenoxy)cyclohexyl)-6-(4-((4-(4-(2,4-dioxotetrahydropyrimidin-1(2H)-yl)-7H-pyrrolo[2,3-d]pyrimidin-7-yl)piperidin-1-yl)methyl)piperidin-1-yl)pyridazine-3-carboxamide]: the Dmax was at least 50%.

In the case of `N#Cc1ccc(O[C@H]2CC[C@H](NC(=O)c3ccc(N4CC5(CCC(CN6CCC(n7ncc8c(N9CCC(=O)NC9=O)cccc87)CC6)CO5)C4)nn3)CC2)cc1Cl` (some centres unmarked) [EAR218, N-((1r,4r)-4-(3-Chloro-4-cyanophenoxy)cyclohexyl)-6-(7-((4-(4-(2,4-dioxotetrahydropyrimidin-1(2H)-yl)-1H-indazol-1-yl)piperidin-1-yl)methyl)-5-oxa-2-azaspiro[3.5]nonan-2-yl)pyridazine-3-carboxamide], the Dmax is at least 50%.

For `N#Cc1ccc(O[C@H]2CC[C@H](NC(=O)c3ccc(N4CCC(CN5CCC(Cn6ccc7c(N8CCC(=O)NC8=O)cccc76)CC5)CC4)nn3)CC2)cc1Cl` [EAR26, N-((1r,4r)-4-(3-Chloro-4-cyanophenoxy)cyclohexyl)-6-(4-((4-((4-(2,4-dioxotetrahydropyrimidin-1(2H)-yl)-1H-indol-1-yl)methyl)piperidin-1-yl)methyl)piperidin-1-yl)pyridazine-3-carboxamide hydrochloride], the Dmax is at least 50%.

Turning to `N#Cc1ccc(O[C@H]2CC[C@H](NC(=O)c3ccc(N4CCC(CN5CCC(n6ncc7c(N8CCC(=O)NC8=O)c(F)ccc76)CC5)CC4)nn3)CC2)cc1Cl` [EAR140, N-((1r,4r)-4-(3-Chloro-4-cyanophenoxy)cyclohexyl)-6-(4-((4-(4-(2,4-dioxotetrahydropyrimidin-1(2H)-yl)-5-fluoro-1H-indazol-1-yl)piperidin-1-yl)methyl)piperidin-1-yl)pyridazine-3-carboxamide, hydrochloride], the Dmax is at least 50%.

For `N#Cc1ccc(O[C@H]2CC[C@H](NC(=O)c3ccc(N4CCC(CN5CCC(n6ccc7c(N8CCC(=O)NC8=O)ccnc76)CC5)CC4)nn3)CC2)cc1C(F)(F)F` [EAR212, N-((1r,4r)-4-(4-Cyano-3-(trifluoromethyl)phenoxy)cyclohexyl)-6-(4-((4-(4-(2,4-dioxotetrahydropyrimidin-1(2H)-yl)-1H-pyrrolo[2,3-b]pyridin-1-yl)piperidin-1-yl)methyl)piperidin-1-yl)pyridazine-3-carboxamide], the Dmax is at least 50%.
